From patent US7435433B2, “Process for the isolation of oleane compounds isolated from the bark of arjun tree terminalia arjuna (Roxb.)” (Council of Scientific & Industrial Research, priority 2005, dated 2008)
≈ marks a conversion by molar mass, not a printed value.

Legend:
Neisseria gonorrhoeae = settings: cited from earlier work
[1] = system: MCF-7 (breast cancer) cells; assay: In-vitro anticancer MTT assay, MCF-7; format: cell-based, human; settings: 6 h exposure, then 48 h; for IC90: Homo sapiens, MCF7, 90% inhibition of cell growth vs untreated control, read-out: Inhibitory Concentration (IC90) MCF-7
Experimental: (§1) The following six human cancer cell lines were procured from the Cell Repository of the National Center for Cell Sciences (NCCS) at Pune. Their corresponding ATCC No. and the organ from which they were isolated are also mentioned in the table described below:
(§2) Cytotoxicity testing in vitro was done by the method of (Woerdenbag et al., 1993; J. Nat. Prod. 56 (6): 849-856). 2×10^3 cells/well were incubated in the 5% CO2 incubator for 24 h to enable them to adhere properly to the 96 well polystyrene microplate (Grenier, Germany). Test compounds dissolved in 100% DMSO in at least five doses were added and left for 6 h after which the compound plus media was replaced with fresh media and the cells were incubated for another 48 h in the CO2 incubator at 37° C.
(§3) Then, 10 μl MTT [3-(4,5-dimethylthiazol-2-yl)-2,5-diphenyltetrazolium bromide; Sigma M 2128] was added, and plates were incubated at 37° C. for 4 h. 100 μl dimethyl sulfoxide (DMSO, Merck, Germany) were added to all wells and mixed thoroughly to dissolve the dark blue crystals. After a few minutes at room temperature to ensure that all crystals were dissolved, the plates were read on a SpectraMax 190 Microplate Elisa reader (Molecular Devices Inc., USA), at 570 nm. Plates were normally read within 1 h of adding the DMSO. The experiment was done in triplicate and the inhibitory concentration (IC) values were calculated as follows: % inhibition=[1-OD (570 nm) of sample well/OD (570 nm) of control well]×100. IC90 is the concentration μg/ml required for 90% inhibition of cell growth as compared to that of untreated control. […] It was also found to be active against breast adenocarcinoma, liver and ovarian cancer cell lines at 20-60 μg/ml.
(§4) IC90: Concentration required to inhibit 90% of cell growth as compared to that of control.

[2] = system: WRL-68 (liver cancer) cells; assay: In-vitro anticancer MTT assay, WRL-68; format: cell-based; settings: Homo sapiens, WRL68, 90% inhibition of cell growth vs untreated control, 6 h exposure, then 48 h, read-out: Inhibitory Concentration (IC90) WRL-68
Experimental: as §1, §2
(§5) Then, 10 μl MTT [3-(4,5-dimethylthiazol-2-yl)-2,5-diphenyltetrazolium bromide; Sigma M 2128] was added, and plates were incubated at 37° C. for 4 h. […] After a few minutes at room temperature to ensure that all crystals were dissolved, the plates were read on a SpectraMax 190 Microplate Elisa reader (Molecular Devices Inc., USA), at 570 nm. Plates were normally read within 1 h of adding the DMSO. The experiment was done in triplicate and the inhibitory concentration (IC) values were calculated as follows: % inhibition=[1-OD (570 nm) of sample well/OD (570 nm) of control well]×100. […]

[3] = system: Caco-2 (colon adenocarcinoma) cells; assay: In-vitro anticancer MTT assay, Caco-2; format: cell-based, human; settings: for IC90: Homo sapiens, Caco-2, read-out: Inhibitory Concentration (IC90) Caco-2; for Inhibitory Concentration (IC90) Caco-2: MTT assay, 90% inhibition of cell growth vs untreated control, 6 h exposure, then 48 h
Experimental: as §1, §2, §3, §4

[4] = system: BT-20 human breast carcinoma cells; settings: cited from earlier work
[5] = system: PA-1 (ovary cancer) cells; assay: In-vitro anticancer MTT assay, PA-1; format: cell-based, human; settings: 90% inhibition of cell growth vs untreated control, 6 h exposure, then 48 h
Experimental: as §1, §2, §3, §4

[6] = system: breast adenocarcinoma, liver and ovarian cancer cell lines; assay: In-vitro anticancer MTT assay, summary over three cell lines; format: cell-based; settings: Homo sapiens, range over three cell lines, read-out: active concentration (IC90) against breast adenocarcinoma, liver and ovarian cancer cell lines
Experimental: as §1, §2, §5

[7] = system: TA98 and TA100 strains of salmonella typhimurium; settings: cited from earlier work

## O=c1cc(-c2ccc(O)c(O)c2)oc2cc(O)cc(O)c12 [Luteolin]
Neisseria gonorrhoeae
  activity against pathogenic bacteria: specific activity

## CC1(C)CCC2(C(=O)OC3OC(CO)C(O)C(O)C3O)CCC3(C)C(=CCC4C5(C)CC(O)C(O)C(C)(C)C5CCC43C)C2C1O (stereo not drawn) [Arjunetin, arjunetin]
[1]
  IC90: 50 µg/mL (≈ 76.8 µM)
[2]
  IC90: 20 µg/mL (≈ 30.7 µM)
[3]
  IC90: 10 µg/mL (≈ 15.4 µM)

## O=C(O[C@H]1[C@@H]2OC(=O)c3cc(O)c(O)c(O)c3-c3c(O)c(O)c4oc(=O)c5c(c(O)c(O)c6oc(=O)c3c4c65)-c3c(cc(O)c(O)c3O)C(=O)OC[C@H]2OC(O)[C@@H]1O)c1cc(O)c(O)c(O)c1 (stereo partly drawn) [Arjunin]
[4]
  IC50: 6500 µg/mL (≈ 6950 µM)
  cytotoxic activity: moderate cytotoxic activity

## CC1(C)CCC2(C(=O)O)CCC3(C)C(=CCC4C5(C)CC(O)C(O)C(C)(C)C5CCC43C)C2C1O (racemic) [Arjunic acid, 2±,3^2,19±-tri-hydroxy-olea-12-en-28-oic acid]
[1]
  IC90: 50 µg/mL (≈ 102 µM)
[2]
  IC90: 20 µg/mL (≈ 40.9 µM)
[3]
  IC90: 4.5 µg/mL (≈ 9.21 µM)
[5]; Homo sapiens, read-out: Inhibitory Concentration (IC90) PA-1
  IC90: 60 µg/mL (≈ 123 µM)
[6]
  IC90: 20 to 60 µg/mL (≈ 40.9 to 123 µM)

## arjungenin
[1]; 90% inhibition of cell growth vs untreated control
  Inhibitory Concentration (IC90) MCF-7: >50 µg/mL
[3]
  Inhibitory Concentration (IC90) Caco-2: 50 µg/mL
[5]
  Inhibitory Concentration (IC90) PA-1: 60 µg/mL

## CC1(C)CC[C@]2(C(=O)O[C@@H]3O[C@H](CO)[C@@H](O)[C@H](O)[C@H]3O)CC[C@]3(C)C(=CC[C@@H]4[C@@]5(C)C[C@@H](O)[C@H](O)[C@@](C)(CO)[C@@H]5CC[C@]43C)[C@@H]2[C@@H]1O [Arjunglucoside-I, arjunglucoside-I]
[3]
  Inhibitory Concentration (IC90) Caco-2: >50 µg/mL
[5]
  Inhibitory Concentration (IC90) PA-1: >50 µg/mL

## O=c1oc2c(O)c(O)cc3c(=O)oc4c(O)c(O)cc1c4c23 [Ellagic acid]
[7]
  antimutagenic effect against 59-dependent 2AF: quit effective
  antimutagenic effect against NPD: moderate effect
